What was measured:
FLK-1 receptor = target: T1, FLK-1 receptor (Mus musculus, UniProt P35918); assay: FLK-1 ELISA (kinase activity of the FLK-1 receptor in FLK-1/NIH3T3 cells, VEGF stimulated); type: cell-based
T1 construct: expressed in transfected cells; host or cells: NIH3T3 C7#3
Method in brief: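 An ELISA using affinity-purified rabbit anti-FLK-1 antiserum on anti-rabbit IgG-coated plates measured VEGF-stimulated FLK-1 kinase activity. NIH3T3 C7#3 cells carrying FLK-1 were serum-starved (0.1% FBS) overnight, then exposed to compound (final 1:200 dilution, 0.5% DMSO) for two hours at 37 °C.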

PDGF-R = PDGF-R (Homo sapiens, UniProt P09619); assay: PDGF-R ELISA; type: cell-based
Sequence of PDGF-R (P09619 33-1106, species assumed): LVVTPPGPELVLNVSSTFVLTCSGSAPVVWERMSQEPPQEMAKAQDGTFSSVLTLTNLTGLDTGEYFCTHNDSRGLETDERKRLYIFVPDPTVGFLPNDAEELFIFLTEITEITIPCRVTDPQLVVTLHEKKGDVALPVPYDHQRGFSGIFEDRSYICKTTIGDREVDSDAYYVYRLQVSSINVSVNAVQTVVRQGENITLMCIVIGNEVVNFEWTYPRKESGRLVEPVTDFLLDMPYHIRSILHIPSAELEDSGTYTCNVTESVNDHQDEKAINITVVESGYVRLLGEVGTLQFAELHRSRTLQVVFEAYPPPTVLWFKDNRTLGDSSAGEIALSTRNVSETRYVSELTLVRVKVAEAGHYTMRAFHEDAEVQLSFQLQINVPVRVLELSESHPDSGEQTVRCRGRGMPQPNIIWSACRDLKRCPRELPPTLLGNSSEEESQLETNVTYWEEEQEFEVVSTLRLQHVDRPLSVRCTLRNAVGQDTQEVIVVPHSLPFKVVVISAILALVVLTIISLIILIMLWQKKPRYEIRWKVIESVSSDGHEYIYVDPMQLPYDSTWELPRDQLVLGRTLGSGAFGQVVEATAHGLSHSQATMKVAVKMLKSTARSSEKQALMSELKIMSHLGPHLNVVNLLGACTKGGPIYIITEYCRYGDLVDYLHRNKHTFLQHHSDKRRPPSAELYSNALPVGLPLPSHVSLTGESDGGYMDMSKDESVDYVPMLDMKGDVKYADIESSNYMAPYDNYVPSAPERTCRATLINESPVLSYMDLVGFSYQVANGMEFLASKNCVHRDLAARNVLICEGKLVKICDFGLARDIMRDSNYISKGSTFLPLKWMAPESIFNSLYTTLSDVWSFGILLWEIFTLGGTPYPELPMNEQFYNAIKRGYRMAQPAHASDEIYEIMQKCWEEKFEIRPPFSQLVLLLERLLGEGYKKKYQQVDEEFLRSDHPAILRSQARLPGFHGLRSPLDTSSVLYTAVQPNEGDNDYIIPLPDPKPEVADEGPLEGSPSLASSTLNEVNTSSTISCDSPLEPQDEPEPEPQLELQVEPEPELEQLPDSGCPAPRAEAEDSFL
From the text: A PDGF-R ELISA is described in International Patent Publication No. WO 96/40116, published December 19, 1996 by Tang et al.

MET = MET biochemical kinase assay; parameters: species or system human; concentration or dose not given beside the values
Method in brief: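 Plates coated with anti-rabbit Fc bind a rabbit anti-MET antibody that captures receptor from cell lysates; unbound protein is washed off before compound and ATP-containing kinase buffer go in.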

T1 sequence (P35918 20-1345): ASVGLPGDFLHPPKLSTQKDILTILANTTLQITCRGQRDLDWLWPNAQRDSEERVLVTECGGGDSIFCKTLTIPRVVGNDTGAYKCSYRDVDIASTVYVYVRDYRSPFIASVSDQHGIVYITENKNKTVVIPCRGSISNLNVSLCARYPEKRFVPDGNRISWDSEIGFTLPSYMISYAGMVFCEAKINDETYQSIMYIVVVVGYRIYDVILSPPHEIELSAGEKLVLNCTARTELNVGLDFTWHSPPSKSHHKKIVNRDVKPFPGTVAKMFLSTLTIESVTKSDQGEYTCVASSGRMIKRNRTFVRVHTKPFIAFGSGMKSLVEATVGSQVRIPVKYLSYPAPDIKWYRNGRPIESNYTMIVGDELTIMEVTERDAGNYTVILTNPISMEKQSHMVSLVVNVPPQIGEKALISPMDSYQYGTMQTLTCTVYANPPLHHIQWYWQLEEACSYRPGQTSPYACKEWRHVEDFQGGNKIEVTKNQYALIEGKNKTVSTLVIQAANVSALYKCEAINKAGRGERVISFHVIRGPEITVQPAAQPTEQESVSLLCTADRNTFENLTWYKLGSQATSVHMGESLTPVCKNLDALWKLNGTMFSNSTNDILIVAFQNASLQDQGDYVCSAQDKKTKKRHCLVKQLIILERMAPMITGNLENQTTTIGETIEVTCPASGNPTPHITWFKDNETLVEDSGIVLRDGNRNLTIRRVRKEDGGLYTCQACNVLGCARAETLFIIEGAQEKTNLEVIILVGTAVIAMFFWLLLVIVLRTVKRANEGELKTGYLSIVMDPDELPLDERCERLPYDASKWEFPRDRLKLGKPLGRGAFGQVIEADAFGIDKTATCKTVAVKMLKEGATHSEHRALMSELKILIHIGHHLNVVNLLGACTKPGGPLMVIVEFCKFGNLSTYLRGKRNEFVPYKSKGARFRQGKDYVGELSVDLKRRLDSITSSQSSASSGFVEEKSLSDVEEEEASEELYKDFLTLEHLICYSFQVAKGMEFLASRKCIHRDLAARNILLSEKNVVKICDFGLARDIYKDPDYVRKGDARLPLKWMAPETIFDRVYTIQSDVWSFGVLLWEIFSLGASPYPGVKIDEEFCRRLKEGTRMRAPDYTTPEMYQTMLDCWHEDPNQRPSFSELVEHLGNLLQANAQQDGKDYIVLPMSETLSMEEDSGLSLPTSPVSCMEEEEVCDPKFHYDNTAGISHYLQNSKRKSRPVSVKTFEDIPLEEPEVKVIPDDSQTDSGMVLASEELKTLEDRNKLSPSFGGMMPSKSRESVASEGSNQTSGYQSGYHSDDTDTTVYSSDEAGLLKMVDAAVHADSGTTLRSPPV

CC(C)(C)c1cc(C=C2C(=O)Nc3ccc(CCCl)cc32)ccc1OCc1ccccc1 [10732/G06]
Fik Kinase %Inhibition (FLK-1 receptor): 26.5% | PDGF Kinase %Inhibition (PDGF-R): 0.2% | Met Kinase % Inhibition (MET): 16.2%

Cc1cc(C=C2C(=O)Nc3ccc(Br)c(C)c32)cc(C)c1OCc1ccccc1 [10733/C07]
Fik Kinase %Inhibition (FLK-1 receptor): 1.2% | PDGF Kinase %Inhibition (PDGF-R): 4.6% | Met Kinase % Inhibition (MET): 10.2%

COc1c(C)cc(C=C2C(=O)Nc3ccc(Br)c(C)c32)cc1C [10733/C06]
Fik Kinase %Inhibition (FLK-1 receptor): 4.7% | PDGF Kinase %Inhibition (PDGF-R): 20.0% | Met Kinase % Inhibition (MET): 4.1%

COc1ccc(C=C2C(=O)Nc3ccc(S(=O)(=O)N4CCOCC4)cc32)cc1C(C)(C)C [10732/F05]
Fik Kinase %Inhibition (FLK-1 receptor): 37.3% | PDGF Kinase %Inhibition (PDGF-R): 12.8% | Met Kinase % Inhibition (MET): 58.9%
